Values joined by “and” are separate entries in the source; they are usually repeats but may differ in a detail not shown here. Equal values may be shown once.
Legend:
[1] = test system: BALB/3T3 clone A31 cells; assay: cells; type: cell-based
Experimental: To evaluate the phototoxicity of (PEG)-BHD1028, the potential phototoxicity of (PEG)-BHD1028 was measured in the BALB/3T3 clone A31 cells after UV exposure. The test substance and the positive control group (chlorpromazine hydrochloride; CPZ) were dissolved in a Hank's Balanced Salt Solution (HBSS) and then diluted with a Hank's Balanced Salt Solution (HBSS). The cells were trypsinized and counted. Thereafter, 1×10^4 cells per well were seeded in a 96-well plate and cultured for approximately 24 hours before treating the test samples. One hour after the sample treatment, the plate was irradiated with a UV irradiation system (UVA, 365 nm). After UV irradiation, the plate was incubated for 24 hours. The cell viability of the cultured cells was confirmed by measuring the absorbance at 540 nm using the neutral red staining method.

[2] = test system: inflammatory cells infiltrated into the stromal layer; assay: Immune cell counts by H&E staining, EDE rabbit model; type: in vivo; conditions: 10 days after the treatment
Source text: The extracted eyes were washed with phosphate-buffered saline (PBS), fixed in the modified Davidson's solution, and embedded in paraffin (Histocore Arcadia, Leica, Wetzlar, Germany). Afterwards, paraffin blocks were sliced into sections of a ˜6 μm thickness, mounted on microscope slides (HistoCore AUTOCUT, Leica, Germany), air dried, and stained with hematoxylin-eosin. The stained tissue slides were imaged, and data were obtained using an optical microscope/digital slide scanner (Axio Scan.Z1, Zeiss, Oberkochen, Germany). Image measurement was performed using ZEN (Zeiss, Germany) and ImageJ (NIH, Bethesda, […], USA) software programs.
The DED inflammatory pathway also includes the infiltration of differentiated (antigen-specific) T cells into the cornea, conjunctiva, and lacrimal gland. To evaluate the anti-inflammatory effect of (PEG)-BHD1028 in the EDE rabbit model, the number of inflammatory cells infiltrated into the stromal layer was measured by H&E staining 10 days after the treatment.

[3] = test system: CD4+IFN-γ+T cell; assay: CD4+IFN-γ+T cell density by flow cytometry, EDE mouse model; type: in vivo
Experimental: The cornea, conjunctiva, and each tissue required for analysis were excised with scissors, incised, and shaken with 0.5 mg/mL collagenase type D at 37° C. for 1 hour. After pulverizing the tissue, the resulting mixture was passed through a cell strainer, centrifuged, and resuspended in phosphate-buffered saline containing 1% bovine serum albumin.
In DED, corneal barrier destruction and epithelial cell loss are accompanied by bone marrow and T cell infiltration. Activated T lymphocytes are the primary producers of Th-1 cytokines and interferon (IFN)-γ, which promote cell death at the ocular surface. To evaluate the anti-inflammatory effect of (PEG)-BHD1028 in the EDE mouse model, immune cells that play the role of inflammatory cell surface markers were quantified by flow cytometry with one animal per group.

[4] = test system: mouse experimental dry eye (EDE) model; assay: Tear film break-up time (TBUT), EDE mouse model; type: in vivo
Experimental: To confirm the pharmacological effect and appropriate dosage, a pilot study was first conducted with the mice. In addition, a rabbit DED (Dry Eye Disease) model with a large exposed facial area was evaluated in comparison with a mouse model. In the mouse experimental dry eye (EDE) model, scopolamine hydrobromide (Sigma-Aldrich. St. Louis, MO, USA) was subcutaneously injected three times a day (9 a.m., 1:30 p.m., 6 p.m.) in a room exposed to ventilation with an ambient humidity of less than 40% at 25±2° C. to induce DED.
The mice were randomly divided into five groups: (1) EDE (experimental dry eye) control mice without eye drops administration, (2) EDE mice treated with a vehicle (phosphate-buffered saline), (3) EDE mice treated with 0.001% (PEG)-BHD1028 (4) EDE mice treated with 0.01% (PEG)-BHD1028, and (5) EDE mice treated with 0.1% (PEG)-BHD1028. All the treatment groups received 2 μL of eye drops three times a day.
TBUT is the time elapsed between the last blink and the first appearance of fluorescein decomposition, and it is an indicator of tear film stability. TBUT was evaluated by administering 1 μL of 1% fluorescein sodium dye to the lower conjunctival sac of the mice and visualizing the tear film using cobalt blue light of a slit-lamp biomicroscope. The measurement was repeated three times to obtain an average value.
Tear film instability is an important pathological characteristic of DED and the most common indicator of tear quality. […] The improvement in the 0.01% (PEG)-BHD1028 group was greater than that in the 0.001% (PEG)-BHD1028 group on Day 10 (p<0.05), but there was no difference between 0.01% and 0.1%.

[5] = Viscosity of eye drops by rotational rheometer; type: physicochemical; conditions: shear rate 100 (1/s)
Source text: Based on the above information, sodium hyaluronate was set as the viscosity reagent.

[6] = Osmotic pressure of trehalose-only formulations; type: physicochemical; conditions: trehalose-only formulation
Experimental: The osmotic pressure of the trehalose-only formulations according to the (PEG)-BHD1028 content (see Table 5) and the osmotic pressure of the trehalose-mannitol composite formulations according to the (PEG)-BHD1028 content (see Table 6) were measured, and reflecting the experimental results, the osmolarity including the 0.5% (PEG)-BHD1028 concentration was adjusted to about 300 mOsm/kg.

[7] = test system: apoptotic cells in cornea and conjunctiva; assay: Apoptotic cells by TUNEL assay, EDE mouse model; type: in vivo; conditions: 0.001%, 0.01%, 0.1%
Experimental: The eyes and appendages from each group were excised, fixed in the modified Davidson's solution, and embedded in paraffin, and the tissue sections were TUNEL-stained. In each section, the degree of apoptosis in the cornea and conjunctiva was measured using ZEN (Zeiss, Oberkochen, Germany) and Image J v1.51j8 (NIH, Bethesda, MD, USA) software programs.
As DED progresses, the epithelium of the anterior segment of the eye undergoes pathological deformations, including functional damages and structural changes such as abnormal tear sebum secretion and pathogenic cell death. Apoptotic cells that were present in an equal area of the cornea and conjunctiva of one eye per group were quantified by the TUNEL assay.

NH2-Tyr-Tyr-Phe-Ala-Tyr-His-Pro-Asn-Ile-Pro-Gly-Leu-Tyr-Tyr-Phe-COOH (H-YYFAYHPNIPGLYYF-OH; also: PEGylated, site not given here (mPEG), acetate salt) [(PEG)-BHD1028]
MPE (mean photo effect) [1]: 0.003
PIF (photo irradiation factor) [1]: 1.000
phototoxicity classification by PIF and MPE [1]: non-phototoxic
IC50 UV (+Irr) ([1]; BALB/3T3 clone A31 cells, UVA 365 nm irradiation, neutral red): >1000 µg/mL
IC50 UV (−Irr) ([1]; BALB/3T3 clone A31 cells, without UV irradiation, neutral red): >1000 µg/mL
immune cell counts in the corneal stroma ([2]; 0.1%): 399.39±22.22
number of immune cells infiltrated into the conjunctiva ([2]; 0.1%): 624.94±29.29
immune cell counts in the corneal stroma ([2]; 0.2%): 349.89±17.18
number of immune cells infiltrated into the conjunctiva ([2]; 0.2%): 472.41±39.06
immune cell counts in the corneal stroma ([2]; 0.4%): 305.06±13.88
number of immune cells infiltrated into the conjunctiva ([2]; 0.4%): 427.22±29.29
CD4+IFN-γ+T cell density ([3]; conjunctiva, 0.001%): 18.96%
CD4+IFN-γ+T cell density ([3]; conjunctiva, 0.01%): 15.31%
CD4+IFN-γ+T cell density ([3]; conjunctiva, 0.1%): 9.91%
CD4+IFN-γ+T cell density ([3]; cornea, 0.001%): 18.62%
CD4+IFN-γ+T cell density ([3]; cornea, 0.01%): 16.78%
CD4+IFN-γ+T cell density ([3]; cornea, 0.1%): 11.66%
CD4+IFN-γ+T cell density ([3]; lacrimal gland, 0.001%): 18.45%
CD4+IFN-γ+T cell density ([3]; lacrimal gland, 0.01%): 14.60%
CD4+IFN-γ+T cell density ([3]; lacrimal gland, 0.1%): 10.70%
TBUT ([4]; 0.001%, Day 5): 1.333 ± 0.081 s
TBUT ([4]; 0.001%, Day 10): 1.359 ± 0.140 s
TBUT ([4]; 0.01%, Day 5): 1.406 ± 0.082 s
TBUT ([4]; 0.01%, Day 10): 1.530 ± 0.137 s
TBUT ([4]; 0.1%, Day 5): 1.408 ± 0.095 s
TBUT ([4]; 0.1%, Day 10): 1.483 ± 0.113 s
viscosity, Test result ([5]; concentration 0.5%): 0.009 Pa · S
viscosity, Test result ([5]; concentration 1.5%): 0.010 Pa · S
viscosity, Test result ([5]; concentration 4.5%): 0.014 Pa · S
osmotic pressure, Mean ([6]; 0.5%): 300.33 mOsm/kg
osmotic pressure, single measurements #1-#3 ([6]; 0.5%): 299 mOsm/kg and 301 mOsm/kg
osmotic pressure, Mean ([6]; 1.5%): 308.67 mOsm/kg
osmotic pressure, single measurements #1-#3 ([6]; 1.5%): 310 mOsm/kg and 309 mOsm/kg and 307 mOsm/kg
osmotic pressure, Mean ([6]; 4.5%): 335.00 mOsm/kg
osmotic pressure, single measurements #1-#3 ([6]; 4.5%): 335 mOsm/kg
antiapoptotic effect (TUNEL) in the cornea and conjunctiva [7]: dose-dependent antiapoptotic effect
